Values of other authors in patent US20250222007A1, “PREPARATION OF LOW MOLECULAR WEIGHT POLYLACTIC ACID AND THE USE THEREOF” (AL Andalous for Pharmaceutical Industries, priority 2023, published 2025).

How the values were obtained:
rabbit eye = conditions: 0.2 ml/day of 100% DMSO (4 drops/day) for 6 months
blind human eyes = conditions: 66% DMSO (with Tetryzoline) topically 4-8 times a day
lower conjunctival sac = conditions: 50 microliters instilled directly in the lower conjunctival sac
[1] = dissolved in 0.1% DMSO, 20.5, 5, 10, 30, 40 micrograms

**Q.** What does the source list for `C[S+](C)[O-]` [DMSO, dimethyl sulfoxide]?
**A.** adverse effect in the eye (rabbit eye): without any evidence of an adverse effect; cases with a burning sensation (blind human eyes): only one case; sensitivity to DMSO, epithelial damage, increase of IOP or keratitis (blind human eyes): None of any blind eyes evinced any evidence; eye irritation or conjunctival or corneal injury (lower conjunctival sac): without any signs of eye irritation or conjunctival or corneal injury

**Q.** Which “toxicity after intravitreal injection” value [1] does the source give for `Clc1ccc(COC(Cn2ccnc2)c2ccc(Cl)cc2Cl)c(Cl)c1` (centres unmarked) [miconazole] here?
**A.** No toxicity was observed
